Key:
[1] = biological target: T1, XlyA (Bacillus subtilis, UniProt P39800); experiment: thermal shift assay (SYPRO Orange); type: binding; settings: (GlcNAc)3 concentration for this protein not stated (16 mM with HEWL)
T1 construct: full coding region, N-terminal His6 tag, vector pJOE5751 (plasmid pHWG1185), E. coli JM109, HisTrap; prophage PBSX gene

[2] = biological target: T2, XlyB (Bacillus subtilis, UniProt O34391); experiment: thermal shift assay (SYPRO Orange); type: binding; settings: (GlcNAc)3 concentration for this protein not stated (16 mM with HEWL)
T2 construct: full coding region, N-terminal His6 tag, vector pJOE5751 (plasmid pHWG1184), E. coli JM109, HisTrap; prophage PBSX gene
T2 sequence (O34391 2-317): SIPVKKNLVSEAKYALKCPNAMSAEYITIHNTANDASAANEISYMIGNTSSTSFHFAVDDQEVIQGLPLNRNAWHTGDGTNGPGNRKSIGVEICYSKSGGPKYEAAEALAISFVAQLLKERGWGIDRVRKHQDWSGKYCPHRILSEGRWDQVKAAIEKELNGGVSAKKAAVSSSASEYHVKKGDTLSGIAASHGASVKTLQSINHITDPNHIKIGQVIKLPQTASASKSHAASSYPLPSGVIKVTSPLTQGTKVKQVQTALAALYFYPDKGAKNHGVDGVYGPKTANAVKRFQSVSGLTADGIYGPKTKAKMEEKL

T1 sequence (P39800 2-297): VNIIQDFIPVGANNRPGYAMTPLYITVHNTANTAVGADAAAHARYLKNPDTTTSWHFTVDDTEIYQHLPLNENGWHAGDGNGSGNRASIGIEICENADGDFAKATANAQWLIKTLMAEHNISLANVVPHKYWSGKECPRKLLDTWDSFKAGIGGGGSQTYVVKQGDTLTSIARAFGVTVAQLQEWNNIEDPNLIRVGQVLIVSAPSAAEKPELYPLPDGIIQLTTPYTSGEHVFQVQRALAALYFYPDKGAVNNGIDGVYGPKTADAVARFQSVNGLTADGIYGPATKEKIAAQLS

dTm [1]: 2 °C | dTm [2]: 2 °C
Structure (SMILES): CC(=O)N[C@H]1[C@H](O[C@H]2[C@H](O)[C@@H](NC(C)=O)C(O)O[C@@H]2CO)O[C@H](CO)[C@@H](O[C@@H]2O[C@H](CO)[C@@H](O)[C@H](O)[C@H]2NC(C)=O)[C@@H]1O (some centres unmarked) [triacetylchitotriose]

Reference: publication PMC6834076, “Crystal structures of the Bacillus subtilis prophage lytic cassette proteins XepA and YomS” (Acta Crystallographica. Section D, Structural Biology, 2019)
